Literature values in patent publication US20240082151A1, “ORALLY IMPLANTABLE DRUG DELIVERY DEVICE” (priority 2019, published 2024).

Columns and labels:
HIV = details: target for effective HIV prevention
[1] = target TFV-DP in PBMCs 50 fmol per million cells; PB-PK simulation (ref 33)
[2] = another study (ref 34)

Row | Structure (SMILES) | steady state plasma CAB concentration, four times the protein adjusted IC90 (PA-IC90) (HIV) | linear subcutaneous TAF release rate estimated to lead to protective TFV-DP PBMC concentrations [1] | TAF release rate estimated to be protective [2]
1 | C[C@H]1CO[C@@H]2Cn3cc(C(=O)NCc4ccc(F)cc4F)c(=O)c(O)c3C(=O)N12 [CAB, Cabotegravir] | 0.66 µg/mL |  | 
2 | CC(C)OC(=O)[C@H](C)N[P@](=O)(CO[C@H](C)Cn1cnc2c(N)ncnc21)Oc1ccccc1 [TAF, Tenofovir alafenamide] |  | 0.5 mg/day | ca. 0.3 mg d^−1
